Target: dopamine transporter (DAT) (Rattus norvegicus, UniProt P23977)
Test: biochemical

Chain of dopamine transporter (DAT) (P23977 whole entry): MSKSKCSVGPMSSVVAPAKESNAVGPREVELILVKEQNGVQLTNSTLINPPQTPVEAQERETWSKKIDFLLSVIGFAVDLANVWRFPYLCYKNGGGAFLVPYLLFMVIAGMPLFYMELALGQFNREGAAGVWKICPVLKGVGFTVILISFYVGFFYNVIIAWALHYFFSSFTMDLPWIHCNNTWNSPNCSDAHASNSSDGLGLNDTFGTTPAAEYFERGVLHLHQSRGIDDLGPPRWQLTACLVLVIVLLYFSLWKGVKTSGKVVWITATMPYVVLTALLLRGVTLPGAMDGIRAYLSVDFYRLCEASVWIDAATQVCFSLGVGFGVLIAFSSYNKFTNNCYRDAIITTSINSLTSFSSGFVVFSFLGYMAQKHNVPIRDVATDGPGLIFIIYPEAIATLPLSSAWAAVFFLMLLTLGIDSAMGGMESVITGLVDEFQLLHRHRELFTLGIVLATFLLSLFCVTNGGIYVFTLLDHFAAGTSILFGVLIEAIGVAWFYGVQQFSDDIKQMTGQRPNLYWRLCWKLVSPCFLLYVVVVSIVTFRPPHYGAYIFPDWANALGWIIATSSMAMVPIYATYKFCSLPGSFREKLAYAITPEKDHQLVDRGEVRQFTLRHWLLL

SMILES: CN1C2CCC1[C@@H](CNc1ccc(Br)nc1)[C@@H](c1ccc(Cl)cc1)C2 (stereo partly shown) [Compound 6b]
- Ki: 17 nM
